Results taken from US10738093B2, “Discovery of cationic nonribosomal peptides as Gram-negative antibiotics through global genome mining” (The Hong Kong University of Science and Technology, priority 2018, dated 2020).
In brackets after ≈: the same amount, converted by molar mass. Positions of bridges follow the written chain, without caps; N, C: chain ends. Non-standard residues stand in square brackets, D forms with d. Residues, ends and D or L forms follow the SMILES beside them. *: point of attachment. Octanoyl(7-Me) = CC(C)CCCCCC(=O)*; aThr = C[C@H](O)[C@H](N)C(=O)O; dOrn = NCCC[C@@H](N)C(=O)O; Orn = NCCC[C@H](N)C(=O)O

Experiments:
[1] = tested on: E. coli Top10; assay: Bacterial growth kinetics; type: cell-based, Escherichia coli; conditions: E. coli cells exposed to compound
Experimental: A fresh single colony of E. coli Top10 was inoculated into MHB (5 mL) and grown with shaking at 225 rpm overnight. The bacteria were diluted to 1×10^5 c.f.u./mL in fresh MHB, grown […] to early log-phase (OD=0.15) and treated with the antibiotics of interest in the wells of a 96-well plate. Final antibiotic concentrations varied from 1×MIC to 8×MIC. The plate was then incubated at 30° C. overnight, with OD 600 measurements taken every 30 seconds.

[2] = tested on: P. aeruginosa PAO1; assay: Atomic force microscopy of treated P. aeruginosa; type: cell-based, Pseudomonas aeruginosa
Experimental: (§1) The samples were then centrifuged at 8000 g for 10 min at 4° C., and the pellet was washed twice in 100 lpL of apyrogenic water. The bacteria resuspended in 50 μL of apyrogenic water were applied to mica disks and dried overnight at 28° C. before imaging. Atomic force micrographs were recorded on a Veeco Mulitmode AFM with NanoScope III controller operating in contact mode. The data were analyzed with NanoScope Analysis software v.1.40 (Veeco, USA). Scans were acquired at 25° C. at the rates of 1.0 Hz and 256 samples per line resolution. Downstream image processing and analysis were performed using NanoScope software (Bruker). Height images were flattened to compensate for cell curvature, and topographical sections were used to generate two-dimensional reconstructions of surface texture.

[3] = tested on: E. coli Top10; assay: Time-kill assay; type: cell-based, Escherichia coli
Experimental: An overnight culture of E. coli Top10 or Pseudomonas aeruginosa PAO1 cells was diluted 1:10,000 in MHB and incubated at 37° C. with agitation at 180 rpm for 2 h (early exponential). The bacteria were then challenged with antibiotics at 10×MIC, brevicidine (20 μg/ml), laterocidine (20 μg/ml) or polymyxin B (10 μg/ml) at room temperature without shaking. An untreated sample of cells was used as a negative control. At intervals, 10 μL aliquots were removed, centrifuged at 10,000 g for 1 min and resuspended in 1.0 mL of sterile PBS. Tenfold-serially-diluted suspensions were plated on MHB agar plates and incubated at 37° C. overnight. Colonies were counted and the number of c.fu. per mL was calculated. For analysis of lysis, 300 μL of culture (OD600=1.0) were treated with 10×MIC of antibiotics for 24 h. Experiments were performed in triplicate.

[4] = tested on: Acinetobacter baumannii; type: cell-based
Experimental: (§2) Minimum inhibitory concentration (MIC) was determined by broth microdilution according to CLSI guidelines. The test medium for most species was Mueller-Hinton broth (MHB). Bacteria were grown overnight to early stationary phase and adjusted in MHB to 5.0×10^5 colony-forming units per mL (c.f.u./mL) in the wells of 96-well microtiter plates, mixed with varying concentrations of test compounds and incubated at 37° C. for 24 h. […] MHBs containing 10% fetal bovine serum (Gibco), 21 mM MgCl, or 1.0 mg/ml LPS (lipopolysaccharides from Escherichia coli O55:B5, Sigma-Aldrich) were used to test their inhibitory effects.

[5] = tested on: Pseudomonas aeruginosa PAO1; type: cell-based; conditions: PAO1
Experimental: as §2

[6] = tested on: Enterobacter cloacae NRRL-B-413; type: cell-based; conditions: NRRL-B-413
Experimental: as §2

[7] = tested on: Methicillin-resistant Staphylococcus aureus ATCC 43300; type: cell-based
Experimental: as §2

[8] = tested on: Klebsiella pneumoniae NRRL-B-408; type: cell-based; conditions: NRRL-B-408
Experimental: as §2

[9] = tested on: Bacillus subtilis 168; type: cell-based; conditions: 168
Experimental: as §2

[10] = tested on: Candida albicans; type: cell-based
Experimental: as §2

[11] = tested on: E. cloacae NRRL-B-425; type: cell-based, Enterobacter cloacae; conditions: NRRL-B-425
Experimental: as §2

[12] = tested on: E. coli ATCC 25922; assay: Neutropenic mouse thigh infection model; type: in vivo, Escherichia coli; conditions: brevicidine 30 mg/kg or laterocidine 15 mg/kg, 2 times, after 26 h
Experimental: In vivo activities of brevicidine and laterocidine were tested using the mouse thigh infection model. Animal studies were performed by Pharmacology Discovery Services Taiwan Ltd. (Taipei, Taiwan) in general accordance with standard guidelines on animal welfare in an AAALAC-accredited facility. The protocol was reviewed and approved by the Institutional Animal Care and Use Committee. Groups of five female specific-pathogen-free ICR (CD-1) mice weighing 22±2 g (˜5 weeks of age) were used. Animals were immunosuppressed with two intraperitoneal injections of cyclophosphamide, the first at 150 mg/kg 4 d before infection (day −4) and the second at 100 mg/kg 1 d before infection (day −1). On day 0, animals were inoculated intramuscularly (0.1 ml/thigh) in the right thigh with an E. coli ATCC 25922 suspension. Vehicle (10% DMSO, 1% Tween 80, 0.9% NaCl) and antibiotics were then subcutaneously injected 2 h and 8 h later. Due to limited amount of compounds 1-2, only one concentration of 1(30 mg/kg) or 2 (15 mg/kg) was used in this study. At 26 h after inoculation, animals were euthanized by CO2 asphyxiation before the muscle of the right thigh was harvested from each test animal. The removed muscle was homogenized in 5 mL of PBS, pH 7.4, with a polytron homogenizer. Homogenates in the amount of 0.1 mL were used for serial tenfold dilutions and plated onto a nutrient agar medium for colony count (c.f.u./g) determination.

[13] = tested on: Saccharomyces cerevisiae VL-48; assay: MIC, Saccharomyces cerevisiae; type: cell-based
Experimental: as §2

[14] = tested on: E. coli ATCC 25922; assay: Atomic force microscopy of treated E. coli; type: cell-based, Escherichia coli; conditions: E. coli ATCC25922, 10×MIC
Experimental: as §1

[15] = tested on: E. coli Top10; type: cell-based, Escherichia coli; conditions: Top10
Experimental: as §2

[16] = tested on: Colistin-resistant E. coli (E. coli ATCC 25922 carrying mcr-1); type: cell-based, Escherichia coli
Experimental: as §2

[17] = tested on: Escherichia coli ATCC 25922; assay: microbe, parasite or virus in culture; type: cell-based; conditions: ATCC 25922
Experimental: as §2

[18] = tested on: K. pneumoniae NRRL-B-3521; type: cell-based, Klebsiella pneumoniae; conditions: NRRL-B-3521
Experimental: as §2

[19] = tested on: Escherichia coli ATCC 25922; assay: Resistance acquisition during serial passaging; type: cell-based; conditions: serial passaging at subinhibitory concentrations over 30 days
Experimental: Escherichia coli ATCC 25922 was inoculated into MHB overnight at 37° C. with continuous shaking. Cells were diluted 10,000 times in MHB to about 1×10^6 c.f.u./mL. […] Plates with bacteria were incubated at 37° C. without shaking. […] This process was repeated for 30 d, and the final MIC was confirmed by the same antibacterial assay described above. The experiment was performed in quadruplicate, and on each day, the sample that developed the highest resistance was measured to plot the curve.

For `CC[C@H](C)[C@@H]1NC(=O)[C@@H](NC(=O)[C@H](Cc2c[nH]c3ccccc23)NC(=O)[C@@H](CCCN)NC(=O)CNC(=O)[C@H](CCCN)NC(=O)[C@@H](CCCN)NC(=O)[C@@H](Cc2c[nH]c3ccccc23)NC(=O)[C@@H](Cc2ccc(O)cc2)NC(=O)[C@@H](CO)NC(=O)CCCCCC(C)C)[C@H](C)OC(=O)CNC(=O)CNC(=O)[C@H](CC(N)=O)NC1=O` [Compound 2, 7-Methyl-Octanoyl-D-Ser-D-Tyr-D-Trp-D-Orn-Orn-Gly-D-Orn-Trp-Thr-Ile-Asn-Gly-Gly (cyclized via lactone formation between Thr and the C-terminus)] ({Octanoyl(7-Me)}-[dS][dY][dW][dOrn][Orn]G[dOrn]W[aThr]INGG; ester 9-C), the “time of growth at a reduced rate before steady decrease in cell count” value [1] was 30 min, the “cell morphology by AFM” value [2] was “lost their regular rod-like shape and became lumpy and rugged” and the “time of exposure to significant reduction of viable cells” value ([3]; 10 times the MIC) was 30 min. For the same compound, the “time of exposure to slightly reduced cell viability” value ([3]; 10 times the MIC) was 15 min, the “bactericidal against E. coli” value ([3]; growth kinetics, time-kill assay and lysis assay) was “bactericidal” and the MIC [4] was 4 µg/mL (≈ 2.49 µM). For the same compound, the “MIC Ab” value [4] was 4 µg/mL (≈ 2.49 µM), the MIC [5] was 2 µg/mL (≈ 1.25 µM) and the “MIC Pa” value [5] was 2 µg/mL (≈ 1.25 µM). The MIC [6] was 2 µg/mL (≈ 1.25 µM), the “MIC En” value [6] was 2 µg/mL (≈ 1.25 µM) and the MIC ([7]; ATCC 43300) was greater than 64 µg/mL. The “MIC MRSA” value ([7]; Table 2, Methicillin-resistant Staphylococcus aureus ATCC 43300) was “ND (ND >64 μg/ml)”, the MIC [8] was 4 µg/mL (≈ 2.49 µM) and the MIC [9] was 32 µg/mL (≈ 19.9 µM). The “MIC Bs” value [9] was 32 µg/mL (≈ 19.9 µM), the MIC [10] was greater than 64 µg/mL and the “MIC Ca” value ([10]; Table 2, Candida albicans) was “ND (ND >64 μg/ml)”. The MIC [11] was 3 µg/mL (≈ 1.87 µM), the “bactericidal efficacy in mouse thigh infection (viable bacteria)” value [12] was “reduced numbers of viable bacteria” and the MIC ([13]; Saccharomyces cerevisiae) was greater than 64 µg/mL. The “MIC Sc” value ([13]; Table 2, Saccharomyces cerevisiae VL-48) was “ND (ND >64 μg/ml)”, the “cell morphology by AFM” value [14] was “lost their regular rod-like shape and became lumpy and rugged” and the MIC [15] was 2 µg/mL (≈ 1.25 µM). For the same compound, the MIC [16] was 2 µg/mL (≈ 1.25 µM), the MIC [17] was 2 µg/mL (≈ 1.25 µM) and the “MIC Ec” value [17] was 2 µg/mL (≈ 1.25 µM). For the same compound, the MIC [18] was 4 µg/mL (≈ 2.49 µM) and the development of resistance [19] was “development of resistance was not observed”.
